Reference: PMC11036874, “In vitro characterization of [^125I]HY-3-24, a selective ligand for the dopamine D3 receptor” (Frontiers in Neuroscience, 2024)
Where two headings read alike, the source gives them in different places.

Columns and labels:
D3R [1] = target: T1, D3R (Rattus norvegicus, UniProt P19020); experiment: D3R and D2R blocking studies of [125I]HY-3-24 in rat striatal homogenates; format: binding; conditions: blocker at 2.4 nM, rat striatal membranes, RT 2 h
T1 construct: The ventral striatum was isolated by dissection on ice; tissue Innovative research, Inc; host or cells: Sprague–Dawley rat brain: ventral striatal homogenates; frozen brain sections
T1 sequence (P19020 whole entry): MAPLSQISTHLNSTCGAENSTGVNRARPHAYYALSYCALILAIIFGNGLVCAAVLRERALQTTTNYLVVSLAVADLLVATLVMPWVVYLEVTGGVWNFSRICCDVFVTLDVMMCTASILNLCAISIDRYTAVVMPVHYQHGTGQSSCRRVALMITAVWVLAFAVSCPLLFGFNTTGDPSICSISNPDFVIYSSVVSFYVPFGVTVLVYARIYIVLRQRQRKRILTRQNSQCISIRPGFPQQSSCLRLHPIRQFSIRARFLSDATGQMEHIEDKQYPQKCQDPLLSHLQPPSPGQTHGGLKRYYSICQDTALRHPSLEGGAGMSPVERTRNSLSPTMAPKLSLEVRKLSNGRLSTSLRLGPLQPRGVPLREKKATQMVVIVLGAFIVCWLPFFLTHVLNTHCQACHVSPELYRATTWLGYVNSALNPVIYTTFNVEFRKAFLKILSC
Experimental: For the D3R and D2R blocking studies, [^125I]HY-3-24 (0.3 nM) was mixed with 100 μg of protein and incubated at RT for 2 h in the presence or absence of 30 nM cold HY-3-24, 100 nM SB-277-011A, 10 nM SB-277-011A, or 2.4 nM L-741,626. [^125I]HY-3-24 bound protein was collected by fast filtration methods (GF/C filter soaked in 1% PEI, Brandel Inc., Maryland, United States) and counted using gamma counter (PerkinElmer, Massachusetts, United States).

D2 receptors = target: D2 receptors; parameters: method as in Kulagowski et al., 1996; conditions: ref Kulagowski et al., 1996; read-out: Ki for displacing [3H]spiperone to D2 receptors; cited from earlier work
D3R [2] = target: T1, D3R; experiment: Competition binding study of [125I]HY-3-24 in rat ventral striatal membranes; conditions: for fold lower affinity/potency for displacing [125I]HY-3-24 relative to eticlopride: rat ventral striatum
Experimental: (§1) Frozen rat brains (Sprague–Dawley rat, Male, 6–8 weeks old) were obtained from Innovative research, Inc. (Novi, Michigan, United States). The ventral striatum was isolated by dissection on ice. Cold homogenization buffer (HB, 20 mM Tris–HCl, 5 mM MgCl2, 1 mM EDTA, pH7.5) was added and the tissue homogenized by mortar and pestle on ice. Homogenized tissue was centrifuged at 10,000 × g, 4°C for 30 min. Supernatant was removed and pellet was mixed with cold HB buffer by vortex. This process was repeated two times to get rat ventral striatal homogenates; and protein amount was determined using a BCA protein assay kit. Homogenized tissue homogenates were stored at −80°C until use.
10 μM of (+)-butaclamol was used for determination of non-specific binding. The final reaction volume was 200 μL and the assay mixture was incubated at RT for 60 min. […] The filter was washed with cold buffer (3 times) and counted by gamma counter. The value of Ki was calculated using nonlinear regression analysis by PRISM 9 and the results was presented mean ± SD by three individual experiments.

D3R [3] = target: T1, D3R; experiment: In vitro autoradiography, rat brain sections; format: binding
Experimental: (§2) Regional brain distribution of [^125I]HY-3-24 binding was determined by in vitro autoradiography using Sprague–Dawley rat and non-human primate brains. A Cryotome (Leica Biosystems, Germany) was used for sectioning frozen brains by coronal and/or sagittal direction, and the thickness of tissue was 10–20 μm. Sectioned slides were stored at −80°C until use. The adjacent brain slides were warmed to RT for 20 min, the slides were incubated with cold reaction buffer (50 mM Tris–HCl, 150 mM NaCl, 1 mM EDTA, pH 7.5) at RT for 10 min, and the buffer was discarded. The slides were then incubated with […] of [^125I]HY-3-24 at RT for 1 h. For non-specific binding, 2 μM of (+)-butaclamol was used. After incubation, the slides were washed with cold buffer (three times) for 2 min, then air dried at RT for 10 min. Radiolabeled brain tissues were exposed to BAS imaging plate (Fujifilm, Tokyo, Japan) for 3 days, and the result was digitized by Typhoon FLA 7000 (GE Healthcare, Illinois, United States) and analyzed by Multi Gauge V3.0. For blocking studies comparing (+)-butaclamol and raclopride, brain slides were initially pretreated with blocking agent (50 nM) for 1 h. prior to the addition of the radioligand (0.3 nM).

D3R [4] = target: T1, D3R; experiment: Saturation/equilibrium binding of [125I]HY-3-24 on rat ventral striatum
Experimental: as §1
To confirm saturation time of [^125I]HY-3-24 with prepared membrane, [^125I]HY-3-24 (~0.3 nM) was mixed with 100 μg of membrane and incubated at RT up to 2 h. [^125I]HY-3-24 bound protein was collected by fast filtration methods (CF/C filter, Brandel Inc., Maryland, United States) and counted using gamma counter (PerkinElmer, Massachusetts, United States).
For saturation binding study, [^125I]HY-3-24 (0.001–1.6 nM concentration range) was incubated with 100 μg/100 μL of homogenized protein at RT for 60 min. Non-specific binding was defined the presence of 10 μM (+)-butaclamol, and total reaction volume was 200 μL. The reaction was finished by adding cold buffer (10 mM Tris–HCl, 150 mM NaCl, pH 7.5), and [^125I]HY-3-24 bound protein was filtered by 24-well harvester (Brandel Inc., Maryland, United States) through CF/C filter soaked with 1% PEI, and washed three times with 4 mL cold buffer. The collected filter was counted by gamma counter and data were analyzed by PRISM 9. The values of Bmax and Kd were obtained by three individual experiments.

D3R [5] = target: T2, D3R (Macaca mulatta, UniProt F6U709); experiment: In vitro autoradiography, non-human primate brain sections; format: binding; conditions: rhesus monkey brain sections
T2 construct: in vitro autoradiography using Sprague–Dawley rat and non-human primate brains; from tissue; host or cells: non-human primate brain sections
T2 sequence (F6U709 1-400): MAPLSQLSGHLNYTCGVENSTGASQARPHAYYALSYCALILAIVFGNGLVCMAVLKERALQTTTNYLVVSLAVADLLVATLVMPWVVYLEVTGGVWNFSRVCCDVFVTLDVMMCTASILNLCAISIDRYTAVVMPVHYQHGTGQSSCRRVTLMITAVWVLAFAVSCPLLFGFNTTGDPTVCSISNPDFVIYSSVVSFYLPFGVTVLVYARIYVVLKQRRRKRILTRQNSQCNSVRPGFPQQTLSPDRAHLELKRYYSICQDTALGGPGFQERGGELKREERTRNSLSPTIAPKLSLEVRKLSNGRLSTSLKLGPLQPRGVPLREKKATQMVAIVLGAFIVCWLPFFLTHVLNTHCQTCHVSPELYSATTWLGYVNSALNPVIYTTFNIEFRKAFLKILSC
Experimental: as §2

[6] = Distribution coefficient (LogD7.4), shake-flask; format: physicochemical; conditions: n-octanol / 0.01 M phosphate buffer pH 7.4, shake-flask, quintuplicate
Experimental: In a separatory funnel, 10 mL of n-octanol and 20 mL of 0.01 M phosphate buffer (pH 7.4) solution were placed and 5 μL of [^125I]HY-3-24 (700 kBq) was added. The mixture was vigorously shaken for 1 min followed by standing for 20 min to completely separate the layers. Five 1 mL of aliquots were taken from each phase and the radioactivity of each fraction was measured by a Wizard2 Automatic Gamma Counter. LogD7.4 was measured in quintuplicate and calculated as the logarithm of the ratio of radioactivity in organic phase to that in water phase.

hD2R [7] = target: hD2R; parameters: method as in Kim et al., 2023; conditions: ref Kim et al., 2023; cited from earlier work
hD3R [8] = target: hD3R; parameters: method as in Kim et al., 2023; conditions: ref Kim et al., 2023; cited from earlier work
hD2R [9] = target: hD2R; parameters: method as in Yang et al., 2000; conditions: ref Yang et al., 2000; cited from earlier work
hD3R [10] = target: hD3R; parameters: method as in Yang et al., 2000; conditions: ref Yang et al., 2000; cited from earlier work
[11] = rat ventral striatal homogenates, 0.2–0.3 nM [125I]HY-3-24, RT 60 min, mean ± SD of three experiments, read-out: Ki for inhibiting [125I]HY-3-24 binding
[12] = rat brain coronal sections, ~0.3 nM radioligand

In the case of `OC1(c2ccc(Cl)cc2)CCN(Cc2c[nH]c3ccccc23)CC1` [L-741,626], the “displacement of [125I]HY-3-24 binding” value (D3R [1]) is given as “no displacement” and the Ki (D2 receptors) is given as 2.4 nM.
`CCCN1CCO[C@@H]2c3cc(O)ccc3OC[C@H]21` [PD128907] gave a Ki (D3R [2]; [11]) of 7.65 ± 1.15 nM.
With `CCN(CCCNC(=O)c1ccc(-c2ccncc2)cc1)CCNC(=O)c1cc([125I])cc(OC)c1OC` [[^125I]HY-3-24] the “binding in NAc including ICjM, and ICj” value (D3R [3]; [12]) was “High binding”, the binding in striatum (D3R [3]; [12]) was “lower amount of binding” and the “displaceability by (+)-butaclamol and raclopride” value (D3R [3]; rat brain slices, blocking agents 50 nM, radioligand ~0.3 nM) was “fully displaceable”. For the same compound, the “percentage of specific binding” value (D3R [4]; rat ventral striatal membranes) was “over 70%”, the “non-specific binding, of total binding” value (D3R [4]; rat ventral striatal membranes, 10 μM (+)-butaclamol) was “less than 10%” and the Kd (D3R [4]; rat ventral striatal membranes, RT 60 min, three experiments) was 0.34 ± 0.22 nM. For the same compound, the Bmax (D3R [4]; rat ventral striatal membranes, fmol/mg of protein, three experiments) was 38.91 ± 2.39 fmol/mg, the “time to binding equilibrium” value (D3R [4]; ~0.3 nM radioligand, 100 μg protein, RT, persisted until 2 h) was “about 30 min” and the non-specific binding (D3R [5]; blocking with 2 μM (+)-butaclamol) was “low level of non-specific binding”. For the same compound, the “binding in caudate nucleus (Cd), putamen (Pu), NAc, and ICj” value (D3R [5]; ~0.1 nM radioligand) was “high density” and the logD at 1 min [6] was 2.41 ± 0.01.
`CCCN1CCO[C@@H]2c3cc(O)ccc3CC[C@H]21` [(+)-PHNO] gave a Ki (D3R [2]; [11]) of 1.72 ± 0.46 nM.
For `CCN(CCCNC(=O)c1ccc(-c2ccncc2)cc1)CCNC(=O)c1cc(Br)cc(OC)c1OC` [compound 6], the Ki (hD2R [7]) is given as 107 ± 5 nM and the Ki (hD3R [8]) is given as 1.1 ± 0.1 nM.
Work on `CCc1cc(Cl)c(OC)c(C(=O)NC[C@@H]2CCCN2CC)c1O` [Eticlopride] yielded a Ki (D3R [2]) of 0.25 ± 0.02 nM.
In the case of `CN1CCc2cc(Cl)c(O)cc2[C@@H](c2ccccc2)C1` [SCH23390], the Ki (D3R [2]; [11]) is reported as 215 ± 61.7 nM and the “fold lower affinity/potency for displacing [125I]HY-3-24 relative to eticlopride” value (D3R [2]) is reported as 1,000 fold.
For `CCN(CC)CCNC(=O)c1cc(Cl)c(N)cc1OC` [Metoclopramide], the Ki (hD2R [9]) is listed as 21 ± 1 nM and the Ki (hD3R [10]) is listed as 27 ± 3 nM.
With `CCN1CCC[C@H]1CNC(=O)c1c(O)c(Cl)cc(Cl)c1OC` [Raclopride] the Ki (D3R [2]; [11]) was 2.51 ± 0.9 nM and the “fold lower affinity/potency for displacing [125I]HY-3-24 relative to eticlopride” value (D3R [2]) was 10 fold.
